{"source": "patent US9096624B2", "about": "(OSI Pharmaceuticals, LLC, priority 2009, dated 2015)", "note": "Counter-ions that a name gives are not always drawn."}
{"molecular_target": "FAK (Homo sapiens, UniProt Q05397)", "sequence (Q05397 whole entry)": "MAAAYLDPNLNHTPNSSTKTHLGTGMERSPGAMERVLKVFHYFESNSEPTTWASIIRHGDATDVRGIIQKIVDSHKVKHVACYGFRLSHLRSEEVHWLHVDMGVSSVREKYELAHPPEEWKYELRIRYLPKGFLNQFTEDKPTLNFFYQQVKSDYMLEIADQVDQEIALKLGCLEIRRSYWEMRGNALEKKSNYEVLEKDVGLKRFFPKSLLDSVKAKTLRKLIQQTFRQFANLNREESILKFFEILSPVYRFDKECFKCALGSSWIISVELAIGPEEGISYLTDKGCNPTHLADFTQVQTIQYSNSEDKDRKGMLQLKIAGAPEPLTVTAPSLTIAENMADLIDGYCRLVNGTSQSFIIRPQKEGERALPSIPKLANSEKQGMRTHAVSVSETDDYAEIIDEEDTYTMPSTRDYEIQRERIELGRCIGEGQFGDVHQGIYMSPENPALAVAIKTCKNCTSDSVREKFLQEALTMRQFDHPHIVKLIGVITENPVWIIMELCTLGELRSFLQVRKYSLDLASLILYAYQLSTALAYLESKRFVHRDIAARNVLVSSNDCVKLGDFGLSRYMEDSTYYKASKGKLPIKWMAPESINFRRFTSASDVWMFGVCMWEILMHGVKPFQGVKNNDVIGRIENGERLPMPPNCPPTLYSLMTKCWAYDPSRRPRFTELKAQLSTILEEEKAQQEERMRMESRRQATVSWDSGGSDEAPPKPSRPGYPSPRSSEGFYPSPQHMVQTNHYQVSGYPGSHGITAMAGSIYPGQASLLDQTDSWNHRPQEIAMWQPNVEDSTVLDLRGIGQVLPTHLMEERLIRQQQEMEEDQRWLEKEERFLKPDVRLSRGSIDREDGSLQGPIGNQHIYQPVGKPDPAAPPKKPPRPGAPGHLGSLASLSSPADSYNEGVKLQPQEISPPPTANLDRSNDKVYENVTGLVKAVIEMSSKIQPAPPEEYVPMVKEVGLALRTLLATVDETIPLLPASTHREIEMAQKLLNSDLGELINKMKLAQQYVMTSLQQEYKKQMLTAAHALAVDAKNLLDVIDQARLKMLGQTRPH", "experiment": "biochemical", "units": {"IC50": "nM"}}
{"smiles": "CCOP(=O)(O)C1CCC(c2ccc(Nc3nc(Nc4ccccc4OC)ncc3C(F)(F)F)c3c2CN(C)C3=O)CC1", "note": "(mixture of isomers) [Example 255, Ethyl hydrogen {4-[7-({2-[(2-methoxyphenyl)amino]-5-(trifluoromethyl)pyrimidin-4-yl}amino)-2-methyl-1-oxo-2,3-dihydro-1H-isoindol-4-yl]cyclohexyl}phosphonate trifluoroacetate]", "IC50": "< 1000"}
{"smiles": "CCOP(=O)(Cc1ccc(Nc2ncc(C(F)(F)F)c(Nc3cccc4c3C(=O)N(C)C4C)n2)cc1)OCC", "note": "(stereo not drawn) [Example 157, Diethyl [4-({4-[(1,2-dimethyl-3-oxo-2,3-dihydro-1H-isoindol-4-yl)amino]-5-(trifluoromethyl)pyrimidin-2-yl}amino)benzyl]phosphonate]", "IC50": "< 1000"}
{"smiles": "CCOP(=O)(Cc1ccc(Nc2ncc(C(F)(F)F)c(Nc3cccc4c3C(=O)N(O)C4)n2)c(OC)c1)OCC", "note": "[Example 186, Diethyl [4-({4-[(2-hydroxy-3-oxo-2,3-dihydro-1H-isoindol-4-yl)amino]-5-(trifluoromethyl)pyrimidin-2-yl}amino)-3-methoxybenzyl]phosphonate trifluoroacetate]", "IC50": "< 1000"}
{"smiles": "CCOP(=O)(Cc1ccc(Nc2ncc(C(F)(F)F)c(Nc3ccc(-c4cnn(CCOC)c4)cc3C(=O)NC)n2)cc1)OCC", "note": "[Example 163, Diethyl (4-{[4-({4-[1-(2-methoxyethyl)-1H-pyrazol-4-yl]-2-(methylcarbamoyl)phenyl}amino)-5-(trifluoromethyl)pyrimidin-2-yl]amino}benzyl) phosphonate]", "IC50": "< 1000"}
{"smiles": "CCOP(=O)(Cc1ccc(Nc2ncc(C(F)(F)F)c(Nc3ccc(N4CCS(=O)(=O)CC4)c4c3C(=O)N(C)C4)n2)cc1)OCC", "note": "[Example 212, Diethyl (4-{[4-{[7-(1,1-dioxidothiomorpholin-4-yl)-2-methyl-3-oxo-2,3-dihydro-1H-isoindol-4-yl]amino}-5-(trifluoromethyl)pyrimidin-2-yl]amino}benzyl)phosphonate]", "IC50": "< 1000"}
{"smiles": "CCOP(=O)(O)Cc1ccc(Nc2ncc(C(F)(F)F)c(Nc3ccc(N4CCN(C)CC4)c4c3C(=O)N(C)C4)n2)cc1", "note": "[Example 249, Ethyl hydrogen (4-{[4-{[2-methyl-7-(4-methylpiperazin-1-yl)-3-oxo-2,3-dihydro-1H-isoindol-4-yl]amino}-5-(trifluoromethyl)pyrimidin-2-yl]amino}benzyl) phosphonate]", "IC50": "< 1000"}
{"smiles": "CCOP(=O)(Cc1ccc(Nc2ncc(C(F)(F)F)c(Nc3ccc(Br)c4ccn(C)c(=O)c34)n2)cc1)OCC", "note": "[Example 123, Diethyl [4-({4-[(5-bromo-2-methyl-1-oxo-1,2-dihydroisoquinolin-8-yl)amino]-5-(trifluoromethyl)pyrimidin-2-yl}amino)benzyl]phosphonate]", "IC50": "< 1000"}
{"smiles": "CCOP(=O)(Cc1ccc(Nc2ncc(C(F)(F)F)c(Nc3ccc([C@H]4CC[C@H](OCC)CC4)c4c3C(=O)N(C)C4)n2)c(OC)c1)OCC", "note": "[Example 170, Diethyl (4-{[4-{[7-(trans-4-ethoxycyclohexyl)-2-methyl-3-oxo-2,3-dihydro-1H-isoindol-4-yl]amino}-5-(trifluoromethyl)pyrimidin-2-yl]amino}-3-methoxybenzyl)phosphonate]", "IC50": "< 1000"}
{"smiles": "CCOP(=O)(Cc1ccc(Nc2ncc(C(F)(F)F)c(Nc3ccc(N4CCN(CC(=O)OC(C)(C)C)CC4)c4c3C(=O)N(C)C4)n2)c(OC)c1)OCC", "note": "[Example 226, tert-Butyl [4-(7-{[2-({4-[(diethoxyphosphoryl)methyl]-2-methoxyphenyl}amino)-5-(trifluoromethyl)pyrimidin-4-yl]amino}-2-methyl-1-oxo-2,3-dihydro-1H-isoindol-4-yl)piperazin-1-yl]acetate]", "IC50": "< 1000"}
{"smiles": "CCOP(=O)(Cc1ccc(Nc2ncc(C(F)(F)F)c(Nc3ccc(C4=CCN(C)CC4)c4c3C(=O)N(C)C4)n2)cc1)OCC", "note": "[Example 248, Diethyl (4-{[4-{[2-methyl-7-(1-methyl-1,2,3,6-tetrahydropyridin-4-yl)-3-oxo-2,3-dihydro-1H-isoindol-4-yl]amino}-5-(trifluoromethyl)pyrimidin-2-yl]amino}benzyl)phosphonate]", "IC50": "< 1000"}
{"smiles": "CCOP(=O)(Cc1ccc(Nc2ncc(C(F)(F)F)c(Nc3ccc(C#N)c4c3C(=O)N(C)C4)n2)c(OC)c1)OCC", "note": "[Example 162, Diethyl [4-({4-[(7-cyano-2-methyl-3-oxo-2,3-dihydro-1H-isoindol-4-yl)amino]-5-(trifluoromethyl)pyrimidin-2-yl}amino)-3-methoxybenzyl]phosphonate]", "IC50": "< 1000"}
{"smiles": "CCOP(=O)(Cc1ccc(Nc2ncc(C(F)(F)F)c(Nc3cccc4c3C(=O)N(OC)C4)n2)c(OC)c1)OCC", "note": "[Example 187, Diethyl [3-methoxy-4-({4-[(2-methoxy-3-oxo-2,3-dihydro-1H-isoindol-4-yl)amino]-5-(trifluoromethyl)pyrimidin-2-yl}amino)benzyl]phosphonate trifluoroacetate]", "IC50": "< 1000"}
{"smiles": "CCOP(=O)(Cc1ccc(Nc2ncc(C(F)(F)F)c(Nc3ccc(N4CC(O)C4)c4c3C(=O)N(C)C4)n2)cc1)OCC", "note": "[Example 227, Diethyl (4-{[4-{[7-(3-hydroxyazetidin-1-yl)-2-methyl-3-oxo-2,3-dihydro-1H-isoindol-4-yl]amino}-5-(trifluoromethyl)pyrimidin-2-yl]amino}benzyl)phosphonate]", "IC50": "< 1000"}
{"smiles": "CCOP(=O)(Cc1ccc(Nc2ncc(C(F)(F)F)c(Nc3ccc(N4CCN(C)CC4)c4c3C(=O)N(C)C4)n2)c(OC)c1)OCC", "note": "[Example 224, Diethyl (3-methoxy-4-{[4-{[2-methyl-7-(4-methylpiperazin-1-yl)-3-oxo-2,3-dihydro-1H-isoindol-4-yl]amino}-5-(trifluoromethyl)pyrimidin-2-yl]amino}benzyl)phosphonate]", "IC50": "< 1000"}
{"smiles": "CCOP(=O)(Cc1ccc(Nc2ncc(C(F)(F)F)c(Nc3ccc(N4CCN5CCOCC5C4)c4c3C(=O)N(C)C4)n2)cc1)OCC", "note": "(stereo not drawn) [Example 121, Diethyl (4-{[4-{[7-(hexahydropyrazino[2,1-c][1,4]oxazin-8(1H)-yl)-2-methyl-3-oxo-2,3-dihydro-1H-isoindol-4-yl]amino}-5-(trifluoromethyl)pyrimidin-2-yl]amino}benzyl)phosphonate]", "IC50": "< 1000"}
{"smiles": "CCOP(=O)(Cc1ccc(Nc2ncc(C(F)(F)F)c(Nc3ccccc3C(=O)N3CCCC3)n2)c(OC)c1)OCC", "note": "[Example 178, Diethyl (3-methoxy-4-{[4-{[2-(pyrrolidin-1-ylcarbonyl)phenyl]amino}-5-(trifluoromethyl)pyrimidin-2-yl]amino}benzyl)phosphonate]", "IC50": "< 1000"}
{"smiles": "CCOP(=O)(Cc1ccc(Nc2ncc(C(F)(F)F)c(Nc3ccc(OC)c4c3C(=O)N(C)C4)n2)cc1)OCC", "note": "[Example 205, Diethyl [4-({4-[(7-methoxy-2-methyl-3-oxo-2,3-dihydro-1H-isoindol-4-yl)amino]-5-(trifluoromethyl)pyrimidin-2-yl}amino)benzyl]phosphonate]", "IC50": "< 1000"}
{"smiles": "CCOP(=O)(Cc1ccc(Nc2ncc(C(F)(F)F)c(Nc3ccc([C@H]4CC[C@H](O)CC4)c4c3C(=O)N(C)C4)n2)cc1)OCC", "note": "[Example 91, Diethyl (4-{[4-{[7-(trans-4-hydroxycyclohexyl)-2-methyl-3-oxo-2,3-dihydro-1H-isoindol-4-yl]amino}-5-(trifluoromethyl)pyrimidin-2-yl]amino}benzyl)phosphonate]", "IC50": "< 1000"}
